Results reported in patent US8450479B2, “3-substituted-4-oxo-3,4-dihydro-imidazo[5,1-d][1,2,3,5-tetrazine-8-carboxylic acid amides and their use” (Pharminox Limited, priority 2007, dated 2013).
Where “and” joins values, the source holds several entries; their conditions need not be identical. Identical values can stand only once. Like-named read-outs stand apart in the source and are kept apart here.

How the values were obtained:
Assay type in all cases: cell-based
[1] = tested on: Breast MCF-7 (MMR proficient); assay: MTT assay for 7-day toxicity assay; conditions: Homo sapiens, MCF7, 168 h; Breast MCF-7 (MMR proficient); 7-day MTT; single determinations; read-out: GI50
Experimental: (§1) The cell culture techniques were carried out in a Class II microbiological safety cabinet which was swabbed with 70% IMS in distilled water before each use. Glioma cells were routinely cultured in Costar tissue culture flasks in RPMI 1640 liquid medium (containing 0.3 g/L L-glutamine and 2 g/L sodium bicarbonate) supplemented with 10% heat inactivated FBS (55-59° C.) for 1 hour to denature complement proteins which would otherwise evoke a cellular immune response resulting in cell lysis, 1% non-essential amino acids, 50 μg/mL gentamicin and 400 μg/mL G418 (vector selected reagent). Colorectal and melanoma cells were maintained in RPMI 1640 supplemented with 10% FBS. MRC-5 cells were cultured in EMEM. Cells were grown in a humidified incubator containing 5% CO2 at 37° C. Cells were sub-cultured when growth exceeded approximately 80% confluence, normally twice weekly. The medium was aspirated from the flask and approximately 0.8 mL trypsin-EDTA 1× solution added. The cells were re-incubated at 37° C. until they visibly detached from the flask. The cell suspension was then re-suspended in 5 mL medium and 0.5-1 mL of the cell suspension was transferred to a new flask (25 cm^2) with 7 mL culture medium. The cells were further incubated at 37° C. incubator. Cells were disposed after passage nearly 30 times in order to minimize phenotypic drift. New batches of cells were taken from liquid nitrogen storage by thawing rapidly (37° C. water bath) and re-suspension in a 25 cm^2 flask with 10 mL of culture medium. Two passages were allowed to resume normal growth. For long-term maintenance, viable cells at 60-80% confluence were detached by minimum amount of trypsin/EDTA and re-suspended in sterile filtered freezing medium (95% FBS, 5% DMSO), transferred to sterile cryogenic vials, and frozen overnight at −20° C. followed by −80° C. for 1-2 days and stored in liquid nitrogen for long term storage.
(§2) Most test compounds, including temozolomide, were prepared as stock solution (100 mM) in DMSO and stored at −20° C. for not more than 6 months.
(§3) This assay was first described in Mosmann, T., 1983, “Rapid colorimetric assay for cellular growth and survival: Application to proliferation and cytotoxicity assays”, Journal of Immunological Methods, Vol. 65, Nos. 1-2, pp. 55-63.
(§4) Glioma cell lines, SNB19 and U373, both MGMT transfected (i.e., SNB19M and U373M) and vector controls (i.e., SNB19V and U373V); colorectal carcinoma cell lines, HCT116, HT29, and DLD1; melanoma cell line, SKMEL-28; breast cell line, MCF-7; and normal human fetal lung fibroblast cell line, MRC-5; were harvested at 60-80% confluence—during the logarithmic phase of growth.
(§5) Following harvesting, cells in suspension were gently syringed through a 23 gauge needle to obtain a near-single cell suspension. The desired cell seeding densities were used and added into 96-well plates in 180 μL culture medium if only one test compound was to be added, or 160 μL if two test compounds were to be added in combination, which were allowed to attach at 37° C. (5% CO2) overnight. For the 7 day assay, the cell seeding density for different cell lines was as follows: SNB19V, SNB19M: 650 cells/well; U373V, U373M: 650 cells/well; SNB19VR, U373VR: 650 cells/well; HCT116, DLD-1, SKMEL-28, MRC-5, MCF-7: 400 cells/well.
(§6) The two peripheral lanes were used as blank wells (cell free) and filled with 200 μL of medium in order to minimise medium evaporation from the plate. A separate time zero (T0) plate was set up alongside other plates. Serial dilutions in tissue culture medium of a 100 mM stock of test compound in DMSO were prepared immediately before each assay to ten times the final concentrations required, and then 20 μL was added to each well (200 μL total media per well) to achieve final concentrations of 0.5 μM, 1 μM, 5 μM, 10 μM, 50 μM, 100 μM, 500 μM, and 1000 μM. A minimum of four wells received the same test compound concentration. […]

[2] = tested on: Colon HCT116 (MMR mutated); assay: MTT assay for 7-day toxicity assay; conditions: Colon HCT116 (MMR mutated), 7-day MTT, single determinations, read-out: GI50
Experimental: as §1, §2, §3, §4, §5, §6

[3] = tested on: Colon HT29 (MMR proficient); assay: MTT assay for 7-day toxicity assay; conditions: Homo sapiens, HT-29, 168 h, Colon HT29 (MMR proficient); 7-day MTT; single determinations; read-out: GI50
Experimental: as §1, §2, §3, §4, §5, §6

[4] = tested on: Melanoma SKMEL-28 (MMR proficient); assay: MTT assay for 7-day toxicity assay; conditions: Homo sapiens, SK-MEL-28, 168 h, Melanoma SKMEL-28 (MMR proficient); 7-day MTT; single determinations; read-out: GI50
Experimental: as §1, §2, §3, §4, §5, §6

Glioma SNB19M (MGMT+) = assay: MTT assay for 7-day toxicity assay; conditions: Glioma SNB19M (MGMT+), read-out: GI50
Summary of the method: (§7)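 MGMT-transfected or vector-control glioma cells were seeded at 650 cells/well, attached overnight, and exposed for 7 days at 37 °C to compound at final 0.5–1000 μM. Viability was read by MTT (0.4 mg/mL, 4 h) formazan absorbance, with a day-0 plate included.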

Glioma SNB19V (MGMT−) = assay: MTT assay for 7-day toxicity assay; conditions: Glioma SNB19V (MGMT−), read-out: GI50
Summary of the method: as §7

Glioma U373M (MGMT+) = assay: MTT assay for 7-day toxicity assay; conditions: Glioma U373M (MGMT+), read-out: GI50
Summary of the method: as §7

Glioma U373V (MGMT low) = assay: MTT assay for 7-day toxicity assay; conditions: for GI50: Glioma U373V (MGMT low), read-out: GI50
Summary of the method: as §7

[5] = tested on: Glioma SNB19VR (MGMT−) (TMZ resistant); assay: MTT assay for 7-day toxicity assay; conditions: 168 h, Glioma SNB19VR (MGMT−, TMZ resistant); 7-day MTT; single determinations; read-out: GI50
Experimental: as §1, §2, §3, §4, §5, §6

[6] = tested on: Glioma U373VR (MGMT low) (TMZ resistant); assay: MTT assay for 7-day toxicity assay; conditions: 168 h, Glioma U373VR (MGMT low, TMZ resistant); 7-day MTT; single determinations; read-out: GI50
Experimental: as §1, §2, §3, §4, §5, §6

[7] = tested on: Normal Human Fetal Lung Fibroblast MRC-5; assay: MTT assay for 7-day toxicity assay; conditions: Homo sapiens, MRC5, 168 h, Normal Human Fetal Lung Fibroblast MRC-5; 7-day MTT; single determinations; read-out: GI50
Experimental: as §1, §2, §3, §4, §5, §6

[8] = tested on: MGMT+ lines SNB 19M and U373M; assay: MTT assay, MGMT+ glioma lines
From the text: as §3, §4, §5
The two peripheral lanes were used as blank wells (cell free) and filled with 200 μL of medium in order to minimise medium evaporation from the plate. A separate time zero (T0) plate was set up alongside other plates. […]
After incubation at 37° C., 5% CO2 for 7 days (or immediately for the day 0 plate), cell viability was quantified using the MTT assay. […]
The intensity of absorbance is directly proportional to cell viability. A linear relationship exists between cell number and the amount of formazan and so the mean absorbance determined for each well of the same concentration can be used as a quantitative measure of viable cells compared to the controls. […]

[9] = tested on: glioma MGMT− and MGMT+ cell lines; assay: MTT assay, glioma lines as a whole; conditions: glioma MGMT− and MGMT+ cell lines
From the text: as §3, §4, §5
(§8) The two peripheral lanes were used as blank wells (cell free) and filled with 200 μL of medium in order to minimise medium evaporation from the plate. A separate time zero (T0) plate was set up alongside other plates. Serial dilutions in tissue culture medium of a 100 mM stock of test compound in DMSO were prepared immediately before each assay to ten times the final concentrations required, and then 20 μL was added to each well (200 μL total media per well) to achieve final concentrations of 0.5 μM, 1 μM, 5 μM, 10 μM, 50 μM, 100 μM, 500 μM, and 1000 μM. A minimum of four wells received the same test compound concentration. To control wells, including those in the T0 plate, 20 μL of medium was added. Previous assays had been carried out to verify that cell viability was not affected by the amount of DMSO added into the test compound-treated wells. A separate plate treated in the same way, but free of test compound, was used as a measure of cell viability at the time of drug addition (day 0).
(§9) After incubation at 37° C., 5% CO2 for 7 days (or immediately for the day 0 plate), cell viability was quantified using the MTT assay. 50 μL of sterile filtered MIT (3-(4,5-dimethylthiazol-2-yl)-2,5-diphenyltetrazolium bromide) (2 mg/mL in phosphate buffered saline) were added to each well (final concentration 0.4 mg/mL) and the plates were re-incubated for 4 hours to allow metabolic conversion of MTT by dehydrogenases in viable cells to insoluble formazan crystals. The medium and any unconverted MTT was aspirated, 150 μL of DMSO was added to each well, and the plates were shaken on a plate shaker (Stuart Scientific 503) to ensure complete formazan solubilisation.
(§10) The intensity of absorbance is directly proportional to cell viability. A linear relationship exists between cell number and the amount of formazan and so the mean absorbance determined for each well of the same concentration can be used as a quantitative measure of viable cells compared to the controls. A graph of absorbance against drug concentration was plotted and the test compound concentration (GI50) causing 50% inhibition of control cell growth (absorbance increase from day 0) was calculated by interpolation.

[10] = tested on: range of other cell lines (e.g., colon, melanoma); assay: MTT assay, other cell lines; conditions: other lines (e.g., colon, melanoma)
From the text: as §3, §4, §5, §8, §9, §10

[11] = 168 h, 7-day MTT, single determinations
[12] = 7-day MTT, single determinations

Structure (SMILES)	GI50 (Glioma SNB19V (MGMT−); [11])	GI50 (Glioma SNB19V (MGMT−); [12])	GI50 (Glioma U373M (MGMT+); [11])	GI50 (Glioma U373M (MGMT+); [12])	GI50 (Glioma U373V (MGMT low); [11])	GI50 (Glioma U373V (MGMT low); [12])	activity compared with TMZ, in words [8]	activity in words [9]	GI50 (Glioma SNB19M (MGMT+))	also measured
COc1cccc(Cn2nnc3c(C(N)=O)ncn3c2=O)c1 [AA-003, 3-(3-Methoxybenzyl)-4-oxo-3,4-dihydroimidazo[5,1-d][1,2,3, 5]tetrazine-8-carboxamide]	–	–	–	–	–	–	–	–	–	GI50 [1]: 316 µM; GI50 [2]: 280 µM; GI50 ([2]; Homo sapiens, HCT-116, 168 h): 309 µM; GI50 [3]: 345 µM; GI50 [4]: 422 µM
CC[C@@H](c1ccccc1)n1nnc2c(C(N)=O)ncn2c1=O [BB-004, (S)-3-(-1-Phenylpropyl)-8-carbamoylimidazotetrazin-4-one]	52.4 µM	65.8 µM	63.1 µM	99.4 µM	84.3 µM	72.8 µM	–	–	–	GI50 (Glioma SNB19M (MGMT+); [11]): 48.4 µM; GI50 (Glioma SNB19M (MGMT+); [12]): 60 µM; GI50 [5]: 29.1 µM; GI50 [6]: 35.8 µM; GI50 [7]: 189 µM
CSCn1nnc2c(C(N)=O)ncn2c1=O [KK-001, 3-(Methylthio)methyl-8-carbamoylimidazotetrazin-4-one]	118 µM	96.5 µM	59 µM	54 µM	45 µM	73.4 µM	more active than TMZ	–	–	–
COC(=O)Cn1nnc2c(C(N)=O)ncn2c1=O [LL-003, Methyl 2-(8-carbamoyl-4-oxoimidazo[5,1-d][1,2,3,5]tetrazin-3(4H)-yl)acetate]	21.3 µM	29.7 µM	25.4 µM	33.7 µM	9.6 µM	11.6 µM	–	surprising efficacy	–	GI50 (Glioma SNB19M (MGMT+); [11]): 34.8 µM; GI50 (Glioma SNB19M (MGMT+); [12]): 33.5 µM
CS(=O)(=O)CCn1nnc2c(C(N)=O)ncn2c1=O [UU-001, 3-(2-Methanesulfonyl-ethyl)-4-oxo-3,4-dihydro-imidazo[5,1-d][1,2,3,5]tetrazine-8-carboxylic acid amide]	–	–	–	–	–	–	–	surprising efficacy	–	GI50 (Glioma SNB19V (MGMT−)): 92.4 µM and 154 µM; activity in words [10]: surprising efficacy
CS(=O)(=O)Cn1nnc2c(C(N)=O)ncn2c1=O [UU-002, 3-Methanesulfonylmethyl-4-oxo-3,4-dihydro-imidazo[5,1-d][1,2,3,5]tetrazine-8-carboxylic acid amide]	–	–	–	–	–	–	–	surprising efficacy	14.5 µM and 13.7 µM and 26.6 µM	activity in words [10]: surprising efficacy
NC(=O)c1ncn2c(=O)n(CNC(=O)OCC3c4ccccc4-c4ccccc43)nnc12 [WW-001, (8-Carbamoyl-4-oxo-imidazo[5,1-d][1,2,3,5]tetrazin-3-ylmethyl)-carbamic acid 9H-fluoren-9-ylmethyl ester]	–	–	–	–	–	–	more active than TMZ	–	71.2 µM and 56 µM	GI50 (Glioma SNB19V (MGMT−)): 64.8 µM and 67.8 µM; GI50 (Glioma U373M (MGMT+)): 50 µM and 62.5 µM; GI50 (Glioma U373V (MGMT low)): 35.8 µM and 60.1 µM
CCC(Cn1nnc2c(C(N)=O)ncn2c1=O)=NOC [XX-001, 3-(2-Methoxyimino-butyl)-4-oxo-3,4-dihydro-imidazo[5,1-d][1,2,3,5]tetrazine-8-carboxylic acid amide]	–	–	–	–	–	–	more active than TMZ	–	47.2 µM and 47.9 µM	GI50 (Glioma U373V (MGMT low)): 18.5 µM and 10.6 µM; activity compared with TMZ, in words (Glioma U373V (MGMT low); MGMT− glioma cell line U373V): enhanced activity
